Test results taken from PubChem BioAssay AID1919003 (Molecular Pharmacology Branch, DTP, NCI, 2023).
Where “and” joins values, the source holds several entries; their conditions need not be identical. Identical values can stand only once.

System: 786-0 complex spheroids with HUVEC/MSC, growth % test/control
Assay: Anticancer human tumor 786-0 cell line growth inhibition [AhR];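 also: compound exposure lasted seven days before the read-out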
Details: for viability, T/C: stronger effect = lower value
In short: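 Agents were dosed in half-log steps down from roughly clinical Cmax, or from 10 microM where Cmax was unknown, alone and with AhR antagonists. Read-out: percent test/control growth of tumor spheroids containing HUVEC and MSC stromal cells.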

[1] = curve of first compound, second compound 0.1 µM
[2] = curve of first compound, second compound 0.316 µM
[3] = curve of first compound, second compound 1 µM
[4] = curve of first compound, second compound 3.16 µM
[5] = curve of first compound, second compound 10 µM
[6] = second compound 0.1 µM, first compound 0.0316 µM
[7] = second compound 0.1 µM, first compound 0.1 µM
[8] = second compound 0.1 µM, first compound 0.316 µM
[9] = second compound 0.1 µM, first compound 1 µM
[10] = second compound 0.1 µM, first compound 3.16 µM
[11] = second compound 0.1 µM, first compound 10 µM
[12] = second compound 0.316 µM, first compound 0.0316 µM
[13] = second compound 0.316 µM, first compound 0.1 µM
[14] = second compound 0.316 µM, first compound 0.316 µM
[15] = second compound 0.316 µM, first compound 1 µM
[16] = second compound 0.316 µM, first compound 3.16 µM
[17] = second compound 0.316 µM, first compound 10 µM
[18] = second compound 1 µM, first compound 0.0316 µM
[19] = second compound 1 µM, first compound 0.1 µM
[20] = second compound 1 µM, first compound 0.316 µM
[21] = second compound 1 µM, first compound 1 µM
[22] = second compound 1 µM, first compound 3.16 µM
[23] = second compound 1 µM, first compound 10 µM
[24] = second compound 3.16 µM, first compound 0.0316 µM
[25] = second compound 3.16 µM, first compound 0.1 µM
[26] = second compound 3.16 µM, first compound 0.316 µM
[27] = second compound 3.16 µM, first compound 1 µM
[28] = second compound 3.16 µM, first compound 3.16 µM
[29] = second compound 3.16 µM, first compound 10 µM
[30] = second compound 10 µM, first compound 0.0316 µM
[31] = second compound 10 µM, first compound 0.1 µM
[32] = second compound 10 µM, first compound 0.316 µM
[33] = second compound 10 µM, first compound 1 µM
[34] = second compound 10 µM, first compound 3.16 µM
[35] = second compound 10 µM, first compound 10 µM
[36] = second compound 0.1 µM, first compound 0.00316 µM
[37] = second compound 0.1 µM, first compound 0.01 µM
[38] = second compound 0.316 µM, first compound 0.00316 µM
[39] = second compound 0.316 µM, first compound 0.01 µM
[40] = second compound 1 µM, first compound 0.00316 µM
[41] = second compound 1 µM, first compound 0.01 µM
[42] = second compound 3.16 µM, first compound 0.00316 µM
[43] = second compound 3.16 µM, first compound 0.01 µM
[44] = second compound 10 µM, first compound 0.00316 µM
[45] = second compound 10 µM, first compound 0.01 µM

Work on CC1(C)CCC(CN2CCN(c3ccc(C(=O)NS(=O)(=O)c4ccc(NCC5CCOCC5)c([N+](=O)[O-])c4)c(Oc4cnc5[nH]ccc5c4)c3)CC2)=C(c2ccc(Cl)cc2)C1 + Cc1ccccc1N=Nc1ccc(NC(=O)c2ccnn2C)c(C)c1 yielded an IC50 [1] greater than 10 µM, an IC50 [2] greater than 10 µM and an IC50 [3] greater than 10 µM. For the same molecule, the IC50 [4] was greater than 10 µM, the IC50 [5] was greater than 10 µM and the viability, T/C [6] was 97.2%. The viability, T/C [7] was 103%, the viability, T/C [8] was 95.2% and the viability, T/C [9] was 109%. It also gave a viability, T/C [10] of 89.5%, a viability, T/C [11] of 83.8% and a viability, T/C [12] of 109%. For the same molecule, the viability, T/C [13] was 99%, the viability, T/C [14] was 102% and the viability, T/C [15] was 106%. The viability, T/C [16] was 97.8%, the viability, T/C [17] was 77.9% and the viability, T/C [18] was 97.5%. For the same molecule, the viability, T/C [19] was 95.1%, the viability, T/C [20] was 96.7% and the viability, T/C [21] was 99.4%. It also gave a viability, T/C [22] of 91.8%, a viability, T/C [23] of 80% and a viability, T/C [24] of 95.6%. It also gave a viability, T/C [25] of 96.9%, a viability, T/C [26] of 99.2% and a viability, T/C [27] of 90.4%. The viability, T/C [28] was 77.1%, the viability, T/C [29] was 82.9% and the viability, T/C [30] was 94.6%. For the same molecule, the viability, T/C [31] was 96.3%, the viability, T/C [32] was 88.3% and the viability, T/C [33] was 87.8%. For the same molecule, the viability, T/C [34] was 75.7% and the viability, T/C [35] was 65.5%.
Nc1ncn(C2CC(O)C(CO)O2)c(=O)n1 (centres undefined) + Cc1ccccc1N=Nc1ccc(NC(=O)c2ccnn2C)c(C)c1 was tested, and the IC50 [1] was greater than 1 µM, the IC50 [2] was greater than 1 µM and the IC50 [3] was greater than 1 µM. It also gave an IC50 [4] greater than 1 µM, an IC50 [5] greater than 1 µM and a viability, T/C [36] of 103%. It also gave a viability, T/C [37] of 114%, a viability, T/C [6] of 105% and a viability, T/C [7] of 101%. It also gave a viability, T/C [8] of 98.3%, a viability, T/C [9] of 90.6% and a viability, T/C [38] of 105%. It also gave a viability, T/C [39] of 104%, a viability, T/C [12] of 106% and a viability, T/C [13] of 99.5%. The viability, T/C [14] was 96.6%, the viability, T/C [15] was 92.9% and the viability, T/C [40] was 106%. For the same molecule, the viability, T/C [41] was 112%, the viability, T/C [18] was 105% and the viability, T/C [19] was 104%. For the same molecule, the viability, T/C [20] was 95.2%, the viability, T/C [21] was 94.5% and the viability, T/C [42] was 104%. It also gave a viability, T/C [43] of 102%, a viability, T/C [24] of 100% and a viability, T/C [25] of 94.9%. For the same molecule, the viability, T/C [26] was 92.8%, the viability, T/C [27] was 89.7% and the viability, T/C [44] was 93.4%. It also gave a viability, T/C [45] of 95.3%, a viability, T/C [30] of 91.3% and a viability, T/C [31] of 87.1%. For the same molecule, the viability, T/C [32] was 83.2% and the viability, T/C [33] was 77.2%.
Cn1ncnc1C1c2n[nH]c(=O)c3cc(F)cc(c23)NC1c1ccc(F)cc1 (centres undefined) + Cc1cncc(-c2nc(NCCc3c[nH]c4ccccc34)c3ncn(C(C)C)c3n2)c1 was tested, and the IC50 [1] was greater than 0.1 µM, the IC50 [2] was greater than 0.1 µM and the IC50 [3] was greater than 0.1 µM. The IC50 [4] was greater than 0.1 µM, the IC50 [5] was less than 0.000316 µM and the viability, T/C (second compound 0.1 µM, first compound 0.000316 µM) was 122%. It also gave a viability, T/C (second compound 0.1 µM, first compound 0.001 µM) of 120%, a viability, T/C [36] of 120% and a viability, T/C [37] of 117%. It also gave a viability, T/C [6] of 120%, a viability, T/C [7] of 115% and a viability, T/C (second compound 0.316 µM, first compound 0.000316 µM) of 117%. For the same molecule, the viability, T/C (second compound 0.316 µM, first compound 0.001 µM) was 119%, the viability, T/C [38] was 110% and the viability, T/C [39] was 116%. It also gave a viability, T/C [12] of 111%, a viability, T/C [13] of 116% and a viability, T/C (second compound 1 µM, first compound 0.000316 µM) of 112%. For the same molecule, the viability, T/C (second compound 1 µM, first compound 0.001 µM) was 111%, the viability, T/C [40] was 118% and the viability, T/C [41] was 99.7%. The viability, T/C [18] was 105%, the viability, T/C [19] was 119% and the viability, T/C (second compound 3.16 µM, first compound 0.000316 µM) was 76.6%. For the same molecule, the viability, T/C (second compound 3.16 µM, first compound 0.001 µM) was 77.5%, the viability, T/C [42] was 78.7% and the viability, T/C [43] was 75.8%. The viability, T/C [24] was 72.8%, the viability, T/C [25] was 80.4% and the viability, T/C (second compound 10 µM, first compound 0.000316 µM) was 19.2%. The viability, T/C (second compound 10 µM, first compound 0.001 µM) was 19.2%, the viability, T/C [44] was 18.9% and the viability, T/C [45] was 17.7%. The viability, T/C [30] was 17.4% and the viability, T/C [31] was 21.4%.
With Nc1ccn(C2OC(CO)C(O)C2(F)F)c(=O)n1 (centres undefined) the viability, T/C (compound 0.0316 µM) was 5.98% and 8.17% and 4.44%, the viability, T/C (compound 0.1 µM) was 6.03% and 7.13% and 4.49% and the viability, T/C (compound 0.316 µM) was 4.27% and 6.35% and 5.28%. The viability, T/C (compound 1 µM) was 4.72% and 8.77% and 4.12%, the viability, T/C (compound 3.16 µM) was 4.82% and 7.86% and 5.09% and the viability, T/C (compound 10 µM) was 5.31% and 7.65% and 6.29%. The IC50 (curve of compound) was less than 0.0316 µM.
With CC(C)c1c(-c2ccccc2)nc2c(C#N)c[nH]n2c1=O + CC(CO)NC(=O)c1cc(-c2ccc(Cl)cc2)nn(-c2cnn(C)c2)c1=O the IC50 [1] was greater than 10 µM, the IC50 [2] was greater than 10 µM and the IC50 [3] was greater than 10 µM. The IC50 [4] was greater than 10 µM, the IC50 [5] was greater than 10 µM and the viability, T/C [6] was 98%. For the same molecule, the viability, T/C [7] was 95.9%, the viability, T/C [8] was 104% and the viability, T/C [9] was 106%. The viability, T/C [10] was 93.7%, the viability, T/C [11] was 104% and the viability, T/C [12] was 95%. It also gave a viability, T/C [13] of 101%, a viability, T/C [14] of 93.2% and a viability, T/C [15] of 95.1%. For the same molecule, the viability, T/C [16] was 92.3%, the viability, T/C [17] was 90% and the viability, T/C [18] was 99.9%. The viability, T/C [19] was 99.1%, the viability, T/C [20] was 105% and the viability, T/C [21] was 104%. For the same molecule, the viability, T/C [22] was 107%, the viability, T/C [23] was 96.2% and the viability, T/C [24] was 100%. It also gave a viability, T/C [25] of 96.5%, a viability, T/C [26] of 97.9% and a viability, T/C [27] of 99.5%. It also gave a viability, T/C [28] of 106%, a viability, T/C [29] of 101% and a viability, T/C [30] of 118%. It also gave a viability, T/C [31] of 105%, a viability, T/C [32] of 105% and a viability, T/C [33] of 108%. It also gave a viability, T/C [34] of 103% and a viability, T/C [35] of 125%.
Cn1ncnc1C1c2n[nH]c(=O)c3cc(F)cc(c23)NC1c1ccc(F)cc1 (centres undefined) was tested, and the viability, T/C (compound 0.000316 µM) was 108% (2×) and 92.5%, the viability, T/C (compound 0.001 µM) was 104% and 108% and 105% and the viability, T/C (compound 0.00316 µM) was 110% and 104% and 100%. The viability, T/C (compound 0.01 µM) was 109% and 104% and 101%, the viability, T/C (compound 0.0316 µM) was 99.5% and 112% and 97.7% and the viability, T/C (compound 0.1 µM) was 106% and 108% and 102%. For the same molecule, the IC50 (curve of compound) was greater than 0.1 µM.
